Measured values: patent publication US7879863B2, “Aniline derivatives” (Ajinomoto Co., Inc., priority 2004, dated 2011)
Structures can show the parent of a compound that is named as a salt. Marks after values point to notes of the source that are not given here.

Columns and labels:
[1] = target: T1, human activated tissue kallikrein (Homo sapiens, UniProt P06870); experiment: Measurement of tissue kallikrein inhibitory activity; type: biochemical; conditions: activated tissue kallikrein activity (initial rate) inhibited by 50%; substrate D-valyl-L-leucyl-L-arginyl-p-nitroanilide; 37° C.
T1 construct: 6xHis (C); made in house; host or cells: baculovirus / Sf21 insect cells
T1 sequence (P06870 25-262): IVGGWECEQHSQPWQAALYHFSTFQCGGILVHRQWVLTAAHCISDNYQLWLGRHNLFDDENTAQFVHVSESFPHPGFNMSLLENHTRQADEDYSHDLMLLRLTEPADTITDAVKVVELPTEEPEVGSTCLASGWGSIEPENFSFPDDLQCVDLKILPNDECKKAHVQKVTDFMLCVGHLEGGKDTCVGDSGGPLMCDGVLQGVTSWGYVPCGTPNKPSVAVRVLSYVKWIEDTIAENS
Procedure: Measurement of tissue kallikrein inhibitory activity
Expression and purification of human activated tissue kallikrein was performed according to the method of Angermann (A. Angermann et al., Eur. J. Biochem., 206, 225-233 (1992)). That is, a gene was prepared by adding 6 residues of histidine to the C-terminal side of human pancreas kallikrein gene (D. Fukuchima et al, Biochemistry, 24, 8037-8043 (1985)), and tissue prokallikrein was expressed by a system using a baculovirus-insect cell (Sf21). Purified human tissue kallikrein was obtained from the culture supernatant by purification using a nickel chelate column (Ni-NTA, QIAGEN K. K.), digestion with TPCK trypsin and further nickel chelate column. To a solution (100 μL) of the human activated tissue kallikrein adjusted to 0.0625 μg/mL with an assay buffer (100 mM tris-hydrochloride buffer (pH 8.4) containing 0.2M NaCl, 0.02% Tween 20, and 0.1% PEG 6000) was added an assay buffer (containing 2% DMSO) solution (50 μL) of the test compound adjusted to the objective concentration, and the mixture was incubated at 37° C. for 10 minutes (min=minutes). Then, a 4 mM solution (50 μL) of D-valyl-L-leucyl-L-arginyl-p-nitroanilide hydrochloride (BACHEM AG) adjusted with the assay buffer was added, the absorbance was measured and the reaction rate was determined. As a control, a DMSO solution (50 μL) was added instead of the solution of the test compound. Absorbance was measured at a wavelength of 405 nm at 60 second intervals for 90 min using a Benchmark Plus Microplate Reader (BIO RAD). The negative logarithm value (abbreviated as pIC50) of the test compound concentration when the activated tissue kallikrein activity (initial rate) was inhibited by 50% without addition of the test compound was used as an index of the activated tissue kallikrein inhibitory activity.

[2] = tested on: DSS-induced enteritis model; experiment: Efficacy evaluation in DSS-induced enteritis model; type: in vivo, female CBA mice; conditions: mice, 5% DSS, relative to non-treatment group = 100%, mean ± standard error
Text: Efficacy evaluation in DSS-induced enteritis model
The dextran sodium sulfate (DSS)-induced enteritis model was subjected to evaluation by a partly-modified methods of Gastroenterology, 98, 694-702 (1990) and Cytokine, 11, 890-896 (1998). A 5 (w/v) % DSS (manufactured by Sigma, MW 5,000) solution was freely taken by female CBA mice (CHARLES RIVER LABORATORIES JAPAN, INC.) for a given period to induce enteritis. A solution of the test compound adjusted to the objective concentration with a 0.5 (w/v) % tragacanth gum (TG) solution was orally administered at 5 mL/kg. Upon autopsy, the length, weight and the like of the large intestine were evaluated and used as an index of the onset of inflammatory enteritis. As a control, a mouse, to which a 0.5 (w/v) % TG solution was orally administered at 5 mL/kg instead of the test compound, was used. The length and weight of the large intestine are expressed as the relative value when the average value of the non-treatment group is 100%. As a Reference Example, the values obtained by oral administration of a positive control drug, salazosulfapyridine, instead of the test compound are shown. […] For testing the significant difference, Dunnett's t-test was used, and statistic significance as shown by P<0.05 and P<0.01 relative to the TG control group is shown in the Table with * and **, respectively.

[3] = tested on: acetic acid writhing model; experiment: Efficacy evaluation in acetic acid writhing model; type: in vivo, male ICR mice; conditions: mice, writhing number 5 to 20 min after 0.9% acetic acid i.p., mean ± standard error
Procedure: Efficacy evaluation in acetic acid writhing model
The acetic acid writhing model was subjected to evaluation according to the method of European Journal of Pharmacology, 352, 47-52 (1998). To be specific, a solution of the test compound adjusted to the objective concentration with a 0.5 (w/v) % tragacanth gum solution was orally administered to male ICR mice (CHARLES RIVER LABORATORIES JAPAN, INC.) at 5 mL/kg, and a 0.9% acetic acid solution adjusted with a physiological saline was intraperitoneally administered 60 min later at 5 mL/kg. The number of writhing for 15 min from 5 min to 20 min after administration of a 0.9% acetic acid solution was counted and taken as the writhing number of the test compound. A mouse, to which a 0.5 (w/v) % tragacanth gum (TG) solution was orally administered at 5 ml/kg instead of the test compound, was used as a control. The suppression rate (%) was calculated by subtracting the relative value of each mouse from the relative value when the average value of the control group is 100%. As a Reference Example, the value obtained by oral administration of a positive control drug, indomethacin, instead of the test compound is shown. […] For testing the significant difference, Dunnett's t-test was used, and statistic significance as shown by P<0.05 and P<0.01 relative to the TG control group is shown in the Table with * and **, respectively.

Compound | IC50 [1] | other results
CC(C)[C@H](CNC(=O)CCc1c[nH]c2ccccc12)Nc1ccc(C(F)(F)F)cc1 [Compound A-5] | 50.1 nM | 
CC(C(=O)NC[C@H](Nc1ccc(C(F)(F)F)cc1)C(C)C)c1ccc(-c2ccccc2)c(F)c1 (stereo partly drawn) [Compound A-6] | 57.5 nM | 
CC(C)[C@H](CNC(=O)Cc1cccnc1)Nc1ccc(C(F)(F)F)cc1 [Compound A-7] | 85.1 nM | 
CC(C)[C@H](CNC(=O)Cc1ccccn1)Nc1ccc(C(F)(F)F)cc1 [Compound A-8] | 91.2 nM | large intestine length (%) ([2]; 10 mg/kg oral): 80.4 ± 1.8** %; large intestine weight (%) ([2]; 10 mg/kg oral): 130.5 ± 5.28** %; suppression rate (%) ([3]; 3 mg/kg oral): 33.7 ± 10.1* %; suppression rate (%) ([3]; 10 mg/kg oral): 52.7 ± 7.5** %; suppression rate (%) ([3]; 30 mg/kg oral): 63.5 ± 6.6** %
CC(C)[C@H](CNC(=O)c1cccc(N(C)C)c1)Nc1ccc(C(F)(F)F)cc1 [Compound A-10] | 145 nM | 
CC(C)[C@H](CNC(=O)C(=O)c1c[nH]c2ccccc12)Nc1ccc(C(F)(F)F)cc1 [Compound A-12] | 162 nM | 
CC(C)[C@H](CNC(=O)C1(c2ccccc2)CC1)Nc1ccc(C(F)(F)F)cc1 [Compound A-16] | 263 nM | 
CC(C)[C@H](CNC(=O)[C@@H](C)N)Nc1ccc(C(F)(F)F)cc1 [Compound A-17] | 295 nM | 
CC(C)[C@H](CNC(=O)[C@@H](N)CO)Nc1ccc(C(F)(F)F)cc1 [Compound A-18] | 309 nM | 
O=C(Cc1ccccc1)NC[C@H]1CCCN1c1ccc(C(F)(F)F)cc1 [Compound A-39] | 41.7 nM | 
CC(C)[C@H](CCNC(=O)c1ccccc1)Nc1ccc(C(F)(F)F)cc1 [Compound A-47, N-((3S))-4-methyl-3-{[4-(trifluoromethyl)phenyl]amino}pentyl)benzamide trifluoroacetate] | 209 nM | 
CC(C)[C@H](CCNC(=O)C1CCN(c2ccncc2)CC1)Nc1ccc(C(F)(F)F)cc1 [Compound A-48] | 46.8 nM | 
CC(C)[C@H](CCNC(=O)c1ccc2ncccc2c1)Nc1ccc(C(F)(F)F)cc1 [Compound A-49] | 46.8 nM | 
CC(C)[C@H](CCNC(=O)Cc1cccs1)Nc1ccc(C(F)(F)F)cc1 [Compound A-50] | 107 nM | 
CC(C)[C@H](CCNC(=O)Cc1c[nH]c2ccccc12)Nc1ccc(C(F)(F)F)cc1 [Compound A-51] | 129 nM | 
CC(C)[C@H](CCNC(=O)C1CCN(C(C)C)CC1)Nc1ccc(C(F)(F)F)cc1 [Compound A-52] | 151 nM | 
CC(C)[C@H](CNC(=O)Cc1ccccc1)Nc1ccc(C(F)(F)F)cc1CO [Compound A-55, N-((2R)-2-{[2-(hydroxymethyl)-4-(trifluoromethyl)phenyl]amino}-3-methylbutyl)-2-phenylacetamide] | 20 nM | 
CC(C)[C@H](CNC(=O)Cc1ccccc1)Nc1ccc(C(F)(F)F)cc1N [Compound A-56, N-((2R)-2-{[2-amino-4-(trifluoromethyl)phenyl]amino}-3-methylbutyl)-2-phenylacetamide trifluoroacetate] | 50.1 nM | 
CC(C)[C@H](CNC(=O)Cc1ccccn1)Nc1ccc(C(F)(F)F)cc1N [Compound A-59] | 83.2 nM | 
CC(C)[C@H](CNC(=O)[C@H](N)Cc1c[nH]c2ccccc12)Nc1ccc(C(F)(F)F)cc1N [Compound A-60] | 135 nM | 
O=C(N[C@H]1CCN(c2ccc(C(F)(F)F)cc2)C1)C1CCN(c2ccncc2)CC1 [Compound B-2] | 204 nM | 
CC(C)[C@H](CC(=O)NCCc1ccccc1)Nc1ccc(C(F)(F)F)cc1 [Compound C-42] | 129 nM | 
CC(C)[C@H](CC(=O)NCCc1ccccn1)Nc1ccc(C(F)(F)F)cc1 [Compound C-43] | 91.2 nM | 
CCCN1CCC(O)c2cc(C(F)(F)F)ccc21 (stereo not drawn) [Compound E-3, 1-propyl-6-(trifluoromethyl)-1,2,3,4-tetrahydroquinolin-4-ol] | 245 nM | 
COc1ccc2c(c1)c(CC(=O)O)c(C)n2C(=O)c1ccc(Cl)cc1 [Indomethacin, indomethacin, reference compound] |  | suppression rate (%) ([3]; 10 mg/kg oral): 64.1 ± 10.8** %
O=C(O)c1cc(/N=N/c2ccc(S(=O)(=O)Nc3ccccn3)cc2)ccc1O [salazosulfapyridine, reference compound] |  | large intestine length (%) ([2]; 200 mg/kg oral): 78.1 ± 1.5* %; large intestine weight (%) ([2]; 200 mg/kg oral): 123.0 ± 1.9** %

More lines, main results first:

IC50 [1] | Compound | other results
21.9 nM | CC(C)[C@H](CNC(=O)Cc1ccccc1)Nc1ccc(C(F)(F)F)cc1 [Compound A-1, N-((2R)-3-methyl-2-{[4-(trifluoromethyl)phenyl]amino}butyl)-2-phenylacetamide trifluoroacetate] | 
25.7 nM | CC(C)[C@H](CNC(=O)CCN)Nc1ccc(C(F)(F)F)cc1 [Compound A-3] | 
29.5 nM | CC(C)[C@H](CNC(=O)Cc1c[nH]c2ccccc12)Nc1ccc(C(F)(F)F)cc1 [Compound A-4] | 
102 nM | CC(C)[C@H](CNC(=O)[C@H](N)c1ccccc1)Nc1ccc(C(F)(F)F)cc1 [Compound A-9] | 
158 nM | CC(C)[C@H](CNC(=O)[C@@H](O)c1ccccc1)Nc1ccc(C(F)(F)F)cc1 [Compound A-11] | 
178 nM | CC(C)[C@H](CNC(=O)/C=C/c1ccncc1)Nc1ccc(C(F)(F)F)cc1 [Compound A-13] | 
182 nM | CC(C)[C@H](CNC(=O)C1CCN(c2ccncc2)CC1)Nc1ccc(C(F)(F)F)cc1 [Compound A-14] | 
182 nM | CC(C)[C@H](CNC(=O)[C@@H](N)C(C)C)Nc1ccc(C(F)(F)F)cc1 [Compound A-15] | 
245 nM | O=C(Cc1ccccc1)NC[C@@H]1CCCN1c1ccc(C(F)(F)F)cc1 [Compound A-40] | 
209 nM | O=C(Cc1c[nH]c2ccccc12)NC[C@H]1CCCN1c1ccc(C(F)(F)F)cc1 [Compound A-41] | 
36.3 nM | CC(C)[C@H](CNC(=O)[C@@H](N)Cc1c[nH]c2ccccc12)Nc1ccc(C(F)(F)F)cc1N [Compound A-57] | 
49 nM | CC(C)[C@H](CNC(=O)Cc1c[nH]c2ccccc12)Nc1ccc(C(F)(F)F)cc1N [Compound A-58] | 
64.6 nM | CC(C)[C@H](CC(=O)NCc1ccccc1)Nc1ccc(C(F)(F)F)cc1 [Compound C-40, (3S)-N-benzyl-4-methyl-3-{[4-(trifluoromethyl)phenyl]amino}pentanamide] | 
302 nM | CC(C)[C@H](CC(=O)NCc1ccccn1)Nc1ccc(C(F)(F)F)cc1 [Compound C-41] | 
112 nM | CCNc1ccc(C(F)(F)F)cc1CO [Compound E-2] | 
257 nM | CCCCN1CCC(O)c2cc(C(F)(F)F)ccc21 (stereo not drawn) [Compound E-4] | 
